This data set can be described thus: gradient 5% acetonitrile 3 min, to 50% in 2 min, to 85% in 15 min, held 3 min, 100 µL/min. As to conditions: column: Zorbax Extend-C18 2.1 x 50 mm; eluents: water / acetonitrile, 0.1% formic acid. A digest of the protocol:
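Values are retention times taken from adduct peaks that software picked and an analyst inspected. The pure standards were run as mixtures of ~100 molecules on HPLC linked to a quadrupole time-of-flight mass spectrometer, in positive and negative ionization mode. A Zorbax Extend-C18 column (2.1 × 50 mm, 1.8 μm) was used at 100 μL/min with water and acetonitrile, each including 0.1% formic acid.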
The molecule `Cc1ncoc1C(=O)N1CCC(N2CC(OCC3CC3)C23CCOCC3)CC1` (stereo not given) gave an RP-LC retention time of 587 s.
As for `CC1(C(=O)NCc2ccccc2)CCCN(S(=O)(=O)c2ccccc2Cl)C1` (stereo not given), the figure is 946 s.
For `Cc1csc(-c2ccc(N3CCN(C(=O)c4ccc5c(c4)OCO5)CC3)nc2)n1`, the RP-LC retention time amounted to 791 s.
As for `Cc1ccc(Cn2nc3c(S(=O)(=O)N4CCN(c5ccc(F)cc5)CC4)cccn3c2=O)cc1`, the figure is 1020 s; as for `CCN1CCCC1CNC(=O)CCc1cc2cc(C)ccc2[nH]c1=O` (stereo not given), 588 s.
As for `CCc1cc(C(=O)Nc2ccc(OC)cc2C)nc2ccnn12`, the figure is 970 s.
As for `COC(=O)c1cnc2nc(C)ccc2c1Nc1cccc(Br)c1`, the figure is 718 s.
For `COc1ccccc1OC(C)C(=O)N1CCN(c2nc(CN3CCOCC3)cs2)CC1` (stereo not given), the RP-LC retention time was determined as 621 s.
In the case of `CN1CCN(Cc2nc(-c3ccc(N(C)Cc4ccccc4)nc3)no2)CC1` it was 638 s.
As for `COc1ccccc1NC(=O)Cn1c(C)cc(-c2nnc(-c3ccccc3)o2)c1C`, the figure is 988 s.
`O=C(O)c1nnn(-c2ccc3c(c2)OCO3)c1-c1ccncc1` came in with an RP-LC retention time of 612 s.
As for `O=C(NCCc1ccccc1)C1CCCN(C(=O)c2cccc(C(F)(F)F)c2)C1` (stereo not given), the figure is 903 s; as for `COc1ccccc1NC(=O)N1CCC(n2cnc3ccccc3c2=O)CC1`, 736 s; as for `CCOC(=O)c1cccc(NC(=O)c2cnc(-c3ccc(C)cc3)nc2-c2ccncc2)c1`, 1050 s.
In the case of `CCC(=O)N1CCCC1COc1ccc(C(=O)N2CCCC2)cc1` (stereo not given), the RP-LC retention time is 712 s.
As for `CCCn1ccc2sc(C)c(C(=O)NCc3ccccc3F)c2c1=O`, the figure is 908 s.
Consider `CN(CC1CCOC1)C(=O)Nc1ccc(F)c(Cl)c1` (stereo not given), for which the RP-LC retention time was 709 s.
Molecule `O=C(Cc1ccc(F)cc1)Nc1cc(-c2cccnc2)no1` yielded an RP-LC retention time of 730 s.
As for `C=CCN1C(=O)COc2ccc(-c3nc(NC(=O)c4ccccc4C)sc3C)cc21`, the figure is 1050 s.
As for `CCOc1cccc(-c2noc(Cn3ncn4nc(-c5ccc(C)cc5C)cc4c3=O)n2)c1`, the figure is 1330 s; as for `COc1ccc(CC2C(=O)Nc3ccccc32)cc1Cl` (stereo not given), 832 s; as for `Cc1cccc(NC(=O)N(C)CCc2noc(COc3cccc(C)c3)n2)c1`, 970 s.
`O=C(Nc1cccc(Br)c1)C1CC(=O)N(c2n[nH]c3cccc(F)c23)C1` (stereo not given) yielded an RP-LC retention time of 824 s.
In the case of `c1cc(-c2noc(-c3cccnc3)n2)cc(-c2ccn[nH]2)c1` it was 777 s; in that of `COc1ccc(-c2c(C(=O)NCc3cccnc3)nn3c(C)cc(C)nc23)cc1S(=O)(=O)N1CCCC1`, 638 s.
In the case of `Cc1cc(=O)n(CC(=O)N(C)c2ccccc2)c(N2CCCCC2)n1` it was 669 s; in that of `COc1ccc(-c2cc3c(=O)n(Cc4nc(-c5cccc(OC)c5OC)oc4C)ccn3n2)cc1`, 990 s; in that of `Cc1ccc(C(=O)Nc2ccccc2[N+](=O)[O-])cc1`, 967 s.
Turning to `CCC(C)NC(=O)c1cnn(-c2cc(-c3nc(C4CC4)no3)ccn2)c1C` (stereo not given), the RP-LC retention time was 973 s.
`O=C(NCc1ccco1)c1nc2ccccn2c1-c1ccccc1`: the RP-LC retention time stood at 783 s.
`O=C(NCCSCc1ccco1)c1cc(-c2cccnc2)nc2ccccc12` returned an RP-LC retention time of 738 s.
In the case of `Cc1oc(-c2ccc(NC(=O)c3cccs3)cc2)nc1Cn1cccn1` it was 836 s.
In the case of `CS(=O)(=O)N1CCCc2cc(C(=O)NCc3cccnc3)ccc21` it was 574 s; in that of `Cc1ccc(S(=O)(=O)N2CCCC(Cn3c(C)nc4cccnc43)C2)cc1F` (stereo not given), 725 s; in that of `CC(C)NC(=O)CN1c2ccc(F)cc2-c2ccccc2S1(=O)=O`, 831 s.
In turn, `CN(C)c1ccc2c(c1)CN(C(=O)Cn1c(=O)oc3ccccc31)CCO2` showed an RP-LC retention time of 621 s.
As for `Cc1cccc(-c2nc(-c3cn(-c4ccccc4)nn3)no2)c1`, the figure is 1060 s.
Consider `CC(=O)N1CCc2cc(N3CC(C(=O)NCc4cccc(Cl)c4)CC3=O)ccc21` (stereo not given), for which the RP-LC retention time was 702 s.
In the case of `Cc1nnc2ccc(S(=O)(=O)Nc3ccc4c(c3)OCO4)cn12` it was 669 s; in that of `S=C(NCc1ccc2c(c1)OCO2)N1CCN(c2ncnc3c2oc2ccccc23)CC1`, 875 s.
As for `COCc1nc2cccnc2n1C1CCN(C(=O)Nc2ccc(Br)cc2F)CC1`, the figure is 746 s; as for `Nc1nc2c(C(F)(F)F)cccc2s1`, 720 s; as for `Cc1ccc(S(=O)(=O)Nc2ccc3c(c2)CCC(=O)N3C)cc1Cl`, 1000 s.
As for `CCN1C=C(C(=O)OCc2cccc(C)c2)C(C)=NS1(=O)=O`, the figure is 1030 s; as for `Cc1ccc(-c2nc(C3CC(=O)N(C4CCCCC4)C3)no2)cn1` (stereo not given), 771 s; as for `CCCn1cc(CCNC(=O)c2ccc(Cl)cc2)c2cccnc21`, 821 s.
Take `Cc1ccc(CNC(=O)CSc2nc3nc(C)cc(C)n3n2)cc1`: the RP-LC retention time is 697 s.
In the case of `COc1ccc(CN2C(=O)[C@H](OC)[C@@H]2C2=CCN(S(=O)(=O)c3cccs3)CC2)cc1` it was 872 s; in that of `COc1ccc(S(=O)(=O)c2csc3c2NC(=O)CC3c2ccsc2)cc1` (stereo not given), 892 s; in that of `CC(C)CN1CCN(Cc2nc(-c3ccc(N4CCCC(C)C4)nc3)no2)CC1` (stereo not given), 645 s.
As for `COc1ccc(-c2nnc(-c3ccc(Cl)c(S(=O)(=O)N4CCCCC4)c3)o2)cc1`, the figure is 1100 s.
In the case of `O=C(c1ccc(-c2cccnc2)nc1)N1CCN(c2ccccc2F)CC1` it was 688 s; in that of `COc1cc(NC(=O)c2cn(-c3cc(N4CCC(C)CC4)ncn3)cn2)cc(OC)c1`, 1110 s; in that of `Cn1cnc(S(=O)(=O)N2CCC(C(=O)NCc3ccccc3)CC2)c1`, 660 s.
The molecule `O=c1n(Cc2ccccc2)nc2c(S(=O)(=O)N3CCCCC3)cccn12` displayed an RP-LC retention time of 647 s.
In the case of `CCC1CCCCN1C(=O)c1cnc2nc(C)ccc2c1Nc1cc(C)ccc1C` (stereo not given) it was 737 s; in that of `CCCn1cc(S(=O)(=O)NCc2ccccc2F)c2cccnc21`, 861 s; in that of `CCOc1ccc(-c2cc(C(F)(F)F)nn2-c2nc(-c3ccc(F)cc3)cs2)cc1`, 882 s.
In the case of `CCN1C(=O)c2cccnc2Sc2cc(NC(=O)c3ccsc3)ccc21` it was 796 s; in that of `CN1Cc2sccc2C(c2ccc(O)c(O)c2)C1` (stereo not given), 628 s; in that of `O=C(c1nccc2ccccc12)N1CCC(Nc2ncnc3c2CCC3)C1` (stereo not given), 537 s.
As for `CCOc1ccc(-c2noc(CN3N=NC4C(=O)N(c5ccc(C)c(F)c5)C(=O)C43)n2)cc1OC` (stereo not given), the figure is 801 s; as for `CCOc1ccccc1NC(=O)N(C)CCc1noc(C2CCCCC2)n1`, 1070 s.
The molecule `COCCN1C(=O)c2ccc(-c3ccco3)n2CC1(C)C(=O)NCc1ccccc1` (stereo not given) gave an RP-LC retention time of 814 s.
In the case of `CCOc1cc(-c2ccc(F)cc2)nc2ccc(NC(=O)C3CCC3)cc12` it was 774 s; in that of `CCc1ccc(-c2noc(Cn3c(=O)n(-c4ccc(C)cc4)c(=O)c4sccc43)n2)cc1`, 1160 s; in that of `COc1ccc(N2CC(c3noc(-c4ccc(F)c(F)c4)n3)CC2=O)cc1` (stereo not given), 948 s.
As for `Cc1c(S(=O)(=O)NCc2cccs2)c(C)n(C)c1-c1nnc(C2CCC2)o1`, the figure is 893 s; as for `Cc1ccc(Cn2cccc2C(=O)C(=O)NCc2ccco2)cc1C`, 1070 s.
In the case of `O=C(Cn1cnc2nc(N3CCCC(C(=O)NC4CC4)C3)sc2c1=O)Nc1ccccc1F` (stereo not given) it was 668 s; in that of `COc1ccc(N2C=C(C#N)S(=O)(=O)c3c(F)cccc32)cc1OC`, 844 s; in that of `COc1ccc(Cl)cc1NC(=O)N1CCC(n2c(C)nc3cccnc32)CC1`, 682 s.
With `CC(C)CCNC(=O)c1cc2n(n1)CC(C)(C(=O)NCc1ccccc1)N(C)C2=O` (stereo not given), the RP-LC retention time came out at 758 s.
In the case of `Cc1ccc(N2CCN(CC(O)c3ccc4c(c3)OCO4)CC2)cc1` (stereo not given) it was 665 s.
In the case of `CCOC(=O)N1CCN(C(=O)CSc2ncnc3c2nnn3CC)CC1` it was 657 s; in that of `O=C(c1ccc(-c2cccnc2)nc1)N1CCN(c2ccccc2)CC1`, 663 s; in that of `CCOc1ccc2ncc(C(=O)c3ccccc3)c(N3CCN(C)CC3)c2c1`, 527 s.
As for `COc1ccccc1N1CCN(CC(=O)NC2CCSC2=O)C1=O` (stereo not given), the figure is 621 s; as for `CCOc1ccc(-n2ccn3cc(-c4ccc(C)cc4C)nc3c2=O)cc1`, 942 s; as for `CCN(CCN(C)C)c1ccc(C(=O)O)cc1NS(=O)(=O)c1cc(F)ccc1F`, 611 s.

The values are drawn from the METLIN SMRT retention time set (Domingo-Almenara et al. 2019).
